Molecular target: T1, human TRPM8 (Homo sapiens, UniProt Q7Z2W7)
T1 construct: expressed in transfected cells; host or cells: HEK293
Test: Menthol-induced Ca2+ influx in HEK293 cells stably expressing human TRPM8
Format: cell-based
Details: 30 microM menthol-induced Ca2+ influx, read-out: IC50 against TRPM8
Description: Measurement of the Menthol-Induced Ca^2+ Influx in HEK293 Cells Stably Expressing Human TRPM8
A cell-based Ca^2+ influx assay using HEK293 cells stably expressing human TRPM8 is used to identify the activity of compounds.
HEK293 cells stably expressing human TRPM8 are grown in T175 flasks at 37° C. in a 5% CO2 humidified incubator to about 80% confluence. Media composition consists of Dulbecco's Modified Eagle Medium (high glucose), 10% fetal calf serum (FCS), 100 units/mLPenicillin, 100 microg/mL Streptomycin and 600 microg/mL Geneticine. At 24 hours prior to assay, cells are seeded in poly-D-lysine coated 384-well plates (BD FALCON) at a density of 30,000 cells per well in culture medium and grown overnight in 5% CO2 at 37° C. On the assay day, growth media is removed and cells are loaded with 0.5 microM Fluo4-AM (Molecular Probes) and 0.005% Pluronic F-127 dissolved in assay buffer (Hank's balanced salt solution (HBSS), 19.4 mM HEPES pH7.4, 2.5 mM Probenecid) for 1 hour at room temperature. After washing with assay buffer, the cells are preincubated with various concentrations of the compounds for 5 min. The changes in intracellular calcium concentration by addition of 30 microM menthol are monitored by the cell imaging technology by Hamamatsu Photonics Functional Drug Screening System (FDSS).
The IC50 values for compounds of the present invention are determined from 11-point dose-response studies. Curves are generated using the average of duplicate wells for each data point. Finally, the IC50 values are calculated with the best-fit dose curve determined by XLfit (ID Business Solutions Ltd.).

T1 sequence (Q7Z2W7 whole entry): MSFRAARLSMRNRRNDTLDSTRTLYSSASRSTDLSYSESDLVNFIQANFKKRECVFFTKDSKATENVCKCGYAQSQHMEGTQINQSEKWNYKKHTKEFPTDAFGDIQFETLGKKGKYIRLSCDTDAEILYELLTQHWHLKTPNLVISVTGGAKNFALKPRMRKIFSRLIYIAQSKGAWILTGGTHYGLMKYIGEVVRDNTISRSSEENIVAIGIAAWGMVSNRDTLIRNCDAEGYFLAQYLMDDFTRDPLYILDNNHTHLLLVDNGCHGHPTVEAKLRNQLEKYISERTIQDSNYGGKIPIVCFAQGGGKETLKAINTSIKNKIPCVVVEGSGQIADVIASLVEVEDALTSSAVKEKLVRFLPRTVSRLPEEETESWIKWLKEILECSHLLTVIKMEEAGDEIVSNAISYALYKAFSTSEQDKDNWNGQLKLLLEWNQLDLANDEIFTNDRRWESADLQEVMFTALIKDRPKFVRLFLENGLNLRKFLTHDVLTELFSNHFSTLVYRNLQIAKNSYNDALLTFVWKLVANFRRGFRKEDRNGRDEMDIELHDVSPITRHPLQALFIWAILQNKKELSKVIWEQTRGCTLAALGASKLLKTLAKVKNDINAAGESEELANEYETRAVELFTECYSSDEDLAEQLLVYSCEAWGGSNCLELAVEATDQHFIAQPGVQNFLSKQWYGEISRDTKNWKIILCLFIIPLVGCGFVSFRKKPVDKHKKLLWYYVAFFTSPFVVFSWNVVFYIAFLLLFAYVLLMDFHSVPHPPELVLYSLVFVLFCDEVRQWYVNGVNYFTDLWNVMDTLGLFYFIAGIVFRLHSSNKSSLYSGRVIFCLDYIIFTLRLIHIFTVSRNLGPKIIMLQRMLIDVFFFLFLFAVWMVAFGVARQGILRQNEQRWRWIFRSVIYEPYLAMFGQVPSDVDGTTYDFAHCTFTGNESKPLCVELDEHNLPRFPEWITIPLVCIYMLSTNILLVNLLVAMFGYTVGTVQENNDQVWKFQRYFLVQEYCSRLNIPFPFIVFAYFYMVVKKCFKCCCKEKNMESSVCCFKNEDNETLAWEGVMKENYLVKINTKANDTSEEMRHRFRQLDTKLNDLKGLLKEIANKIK

SMILES | IC50
Cc1cc(C(=O)CN2C(=O)NC3(CCC(F)(F)CC3)C2=O)n(C)c1-c1cccnc1 [Example 16-11] | < 100 nM
O=C(CN1C(=O)OC2(CCC(F)(F)CC2)C1=O)c1ccc(-c2nccc3ccncc23)cc1 [Example 7-22] | < 10 nM
O=C(CN1C(=O)NC2(CCCCC2)C1=O)c1ccc(-c2ccccc2)cc1F [Example 13-20] | < 100 nM
N#Cc1cccc(-c2ccc(C(=O)CN3C(=O)NC4(CCCCC4)C3=O)c(F)c2)c1 [Example 13-19] | < 100 nM
O=C(CN1C(=O)NC2(CCC(F)(F)CC2)C1=O)c1ccc(-c2ccc3ccccc3n2)cc1 [Example 13-47] | < 100 nM
Cc1cc(C(=O)CN2C(=O)NC3(CCC(F)(F)CC3)C2=O)n(C)c1-c1ccccc1C#N [Example 16-7] | < 100 nM
Cc1cncc(-n2c(C)cc(C(=O)CN3C(=O)NC4(CCCCC4)C3=O)c2C)c1 [Example 3-11] | < 100 nM
N#Cc1cccc(-c2c(F)cc(C(=O)CN3C(=O)NC4(CCC(F)(F)CC4)C3=O)cc2F)c1 [Example 13-33] | < 500 nM
O=C(CN1C(=O)NC2(CCC(F)(F)CC2)C1=O)c1ccc(N2C(=O)CCc3ccccc32)cc1 [Example 19-27] | < 500 nM
O=C(CN1C(=O)NC2(CCCCC2)C1=O)c1ccc(Oc2ccccc2)cc1 [Example 5-19] | < 100 nM
O=C(CN1C(=O)NC2(CCC(F)(F)CC2)C1=O)c1ccc(N2C(=O)COc3ccccc32)cc1 [Example 19-21] | < 100 nM
O=C(CN1C(=O)NC2(CCC(F)(F)CC2)C1=O)c1ccc(-c2ncccc2Cl)cc1 [Example 6-22] | < 100 nM
Cc1nc2nccnc2n1-c1ccc(C(=O)CN2C(=O)NC3(CCC(F)(F)CC3)C2=O)cc1 [Example 19-39] | < 500 nM
Cc1nc(C(=O)CN2CC3(CCC(F)(F)CC3)OC2=O)c(C)n1-c1cccc(F)c1 [Example 2-18] | < 500 nM
O=C(CN1C(=O)NC2(CCCCC2)C1=O)c1ccc(-c2cccnc2)cc1 [Example 13-2] | < 100 nM
O=C(CN1C(=O)NC2(CCC(F)(F)CC2)C1=O)c1cnc(N2C(=O)COc3ccccc32)cn1 [Example 19-25] | < 100 nM
Cc1nc(C(=O)CN2C(=O)NC3(CCC(F)(F)CC3)C2=O)sc1-c1cncc(C#N)c1 [Example 18-13] | < 500 nM
Cn1c(-c2cccc(F)c2)cnc1C(=O)CN1C(=O)NC2(CCC(F)(F)CC2)C1=O [Example 17-1] | < 100 nM
Cc1cc(C(=O)CN2C(=O)NC3(CCC(F)(F)CC3)C2=O)n(C)c1-c1cccc(F)c1 [Example 16-5] | < 100 nM
O=C(CN1C(=O)NC2(CCC(F)(F)CC2)C1=O)c1ccc(-c2nccc3[nH]ccc23)cc1 [Example 6-24] | < 100 nM
O=C(CN1C(=O)NC2(CCC(F)(F)CC2)C1=O)c1ccc(-n2cnc3ncccc32)cc1 [Example 5-11] | < 100 nM

SMILES | IC50
Cn1nccc1-c1ccc(C(=O)CN2C(=O)NC3(CCCCC3)C2=O)cc1 [Example 7-6] | < 100 nM
O=C(CN1C(=O)NC2(CCC(F)(F)CC2)C1=O)c1ccc(-c2ncnc3[nH]ncc23)cc1 [Example 6-23] | < 100 nM
O=C(CN1C(=O)NC2(CCC(F)(F)CC2)C1=O)c1ccc(Cc2ccccn2)cc1 [Example 6-119] | < 500 nM
Cc1ccnnc1-c1ccc(C(=O)CN2C(=O)NC3(CCCCCC3)C2=O)cc1 [Example 5-26] | < 100 nM
Cc1nc(C(=O)CN2C(=O)NC3(CCC(F)(F)CC3)C2=O)sc1-c1cncc(F)c1 [Example 18-9] | < 100 nM
O=C(CN1C(=O)NC2(CCC(F)(F)CC2)C1=O)c1ccc(-c2ccccc2CO)cc1 [Example 13-34] | < 10 nM
Cc1ccnnc1Oc1ccc(C(=O)CN2C(=O)NC3(CCC(F)(F)CC3)C2=O)cc1 [Example 21-11, 8,8-difluoro-3-(2-(4-((4-methylpyridazin-3-yl)oxy)phenyl)-2-oxoethyl)-1,3-diazaspiro[4.5]decane-2,4-dione] | < 500 nM
O=C(CN1C(=O)OC2(CCC(F)(F)CC2)C1=O)c1ccc(-c2ncccn2)cc1 [Example 7-26] | < 100 nM
Cc1ncccc1-c1ccc(C(=O)CN2C(=O)OC3(CCC(F)(F)CC3)C2=O)cc1 [Example 13-72] | < 100 nM
Cc1nc2ccccc2n1-c1cnc(C(=O)CN2C(=O)NC3(CCC(F)(F)CC3)C2=O)cn1 [Example 19-33] | < 10 nM
O=C(CN1C(=O)NC2(CCC(F)(F)CC2)C1=O)c1ccc(-c2ncnc3ncccc23)cc1 [Example 6-59] | < 500 nM
O=C(CN1C(=O)NC2(CCC(F)(F)CC2)C1=O)c1ccc(-n2cnc3ccccc32)nc1 [Example 5-12] | < 100 nM
Cc1nc2ccccc2n1-c1ccc(C(=O)CN2CC3(CCC(F)(F)CC3)OC2=O)cc1 [Example 22-3] | < 100 nM
Cc1nccnc1-c1ccc(C(=O)CN2C(=O)NC3(CCCCC3)C2=O)cc1 [Example 7-14] | < 100 nM
Cc1cc(C(=O)CN2C(=O)NC3(CCC(F)(F)CC3)C2=O)n(C)c1-c1cccc(Cl)c1 [Example 16-12] | < 100 nM
Cc1cccc(-n2c(C)nc(C(=O)CN3C(=O)NC4(CCCCC4)C3=O)c2C)c1 [Example 2-13] | < 100 nM
Cc1ccc2nc(C)n(-c3ccc(C(=O)CN4C(=O)NC5(CCCCCC5)C4=O)cc3)c2n1 [Example 5-30] | < 100 nM
Cc1ccnc(Oc2ccc(C(=O)CN3C(=O)NC4(CCC(F)(F)CC4)C3=O)cc2)c1 [Example 21-4] | < 500 nM
Cc1ccnc(Oc2ccc(C(=O)CN3C(=O)NC4(CCC(F)(F)CC4)C3=O)cc2)n1 [Example 21-7] | < 500 nM
O=C(CN1C(=O)NC2(CCC(F)(F)CC2)C1=O)c1ccc(-n2ncc3ccccc32)cc1 [Example 5-6] | < 100 nM
O=C(CN1C(=O)NC2(CCC(F)(F)CC2)C1=O)c1ccc(Oc2nccs2)cc1 [Example 21-13, 8,8-difluoro-3-(2-oxo-2-(4-(thiazol-2-yloxy)phenyl)ethyl)-1,3-diazaspiro[4.5]decane-2,4-dione] | < 100 nM

SMILES | IC50
N#Cc1ccnnc1-c1ccc(C(=O)CN2C(=O)NC3(CCC(F)(F)CC3)C2=O)cc1 [Example 6-43] | < 100 nM
O=C(CN1C(=O)NC2(CCC(F)(F)CC2)C1=O)c1ccc(-c2nccs2)cc1 [Example 6-95] | < 500 nM
CN(c1cccc(C(F)(F)F)c1)c1ccc(C(=O)CN2C(=O)NC3(CCC(F)(F)CC3)C2=O)cn1 [Example 19-15] | < 500 nM
Cc1ccccc1-c1ccc(C(=O)CN2C(=O)NC3(CCC(F)(F)CC3)C2=O)nc1 [Example 10-2] | < 100 nM
N#Cc1ccccc1-c1c(F)cc(C(=O)CN2C(=O)NC3(CCC(F)(F)CC3)C2=O)cc1F [Example 13-31] | < 100 nM
Cc1ncccc1-c1c(C)c(C(=O)CN2C(=O)NC3(CCC(F)(F)CC3)C2=O)cn1C [Example 16-28] | < 500 nM
O=C(CN1C(=O)NC2(CCC(F)(F)CC2)C1=O)c1ccc(-c2cccnc2CO)cc1 [Example 6-9] | < 100 nM
O=C(CN1C(=O)NC2(CCCCC2)C1=O)c1ccc(Oc2ccccc2)nc1 [Example 5-24] | < 500 nM
Cc1cc(C(=O)CN2C(=O)NC3(CCC(F)(F)CC3)C2=O)sc1-c1cccc(CO)c1 [Example 14-21] | < 500 nM
Cc1cccc(N(C)c2ccc(C(=O)CN3C(=O)NC4(CCCCC4)C3=O)cn2)c1 [Example 19-1, 3-(2-(6-(methyl(m-tolyl)amino)pyridin-3-yl)-2-oxoethyl)-1,3-diazaspiro[4.5]decane-2,4-dione] | < 100 nM
COc1ccccc1-c1ccc(C(=O)CN2C(=O)NC3(CCCCC3)C2=O)cc1 [Example 13-3] | < 100 nM
Cc1nc(C(=O)CN2C(=O)OC3(CCC(F)(F)CC3)C2=O)c(C)n1-c1ccccc1 [Example 2-3] | < 100 nM
Cc1ccc2[nH]c(=O)n(-c3ccc(C(=O)CN4C(=O)NC5(CCC(F)(F)CC5)C4=O)cc3)c2n1 [Example 23-2, 8,8-difluoro-3-(2-(4-(5-methyl-2-oxo-1H-imidazo[4,5-b]pyridin-3(2H)-yl)phenyl)-2-oxoethyl)-1,3-diazaspiro[4.5]decane-2,4-dione] | < 100 nM
CC(=O)NCc1ncccc1-c1ccc(C(=O)CN2C(=O)NC3(CCC(F)(F)CC3)C2=O)cc1 [Example 6-57, N-((3-(4-(2-(8,8-difluoro-2,4-dioxo-1,3-diazaspiro[4.5]decan-3-yl)acetyl)phenyl)pyridin-2-yl)methyl)acetamide] | < 100 nM
O=C(CN1C(=O)NC2(CCC(F)(F)CC2)C1=O)c1ccc(Oc2cccnc2)c(F)c1 [Example 21-17] | < 100 nM
COc1ccncc1-c1cnc(C(=O)CN2C(=O)NC3(CCC(F)(F)CC3)C2=O)cn1 [Example 12-5] | < 100 nM
O=C1Cc2c(cccc2-c2ccc(C(=O)CN3C(=O)NC4(CCC(F)(F)CC4)C3=O)cc2)N1 [Example 13-44] | < 100 nM
COc1ccncc1-c1sc(C(=O)CN2C(=O)NC3(CCC(F)(F)CC3)C2=O)cc1C [Example 14-16] | < 100 nM
COc1ccncc1-c1ccc(C(=O)CN2C(=O)NC3(CCC(F)(F)CC3)C2=O)cc1 [Example 13-39] | < 100 nM
O=C(CN1C(=O)NC2(CCC(F)(F)CC2)C1=O)c1ccc(-c2cccc3cccnc23)cc1 [Example 13-46] | < 100 nM

Source: patent US10093678B2, “Azaspiro derivatives as TRPM8 antagonists” (RaQualia Pharma Inc., priority 2014, dated 2018)
